Data on eight molecules can be found in US20240317777A1, “NOVEL MACROCYCLIC AMINOPYRAZOLE COMPOUNDS AS CDK2 INHIBITORS” (Accutar Biotechnology Inc., priority 2023, published 2024).

One test has as its target CDK1-CYCLIN B (Homo sapiens, UniProt P06493). Kind of test: CDK protein kinase inhibition by ADP-Glo assay, CDK1-CYCLIN B. In kind it is biochemical. Conditions: for IC50: ADP-Glo, 1000 μM ATP, read-out: CDK1-CYCLINB, IC50. The method, boiled down:
(§1)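 In this assay, substrate phosphorylation by each CDK/cyclin pair is measured indirectly as ADP, read by ADP-Glo luminescence. The reaction uses 1000 μM ATP at 22° C in pH 7.5 buffer with 1% DMSO.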
In general terms: ADP-Glo first removes unused ATP, then detects ADP through luciferase.

The next test addresses CDK2-CYCLIN E1 (Homo sapiens, UniProt P24941). In words: CDK protein kinase inhibition by ADP-Glo assay, CDK2-CYCLIN E1. In kind it is biochemical. Conditions: ADP-Glo, 1000 μM ATP, read-out: CDK2-CYCLINE, IC50. An outline of the steps: as §1
The target of the next test is CDK4-CYCLIN D1 (Homo sapiens, UniProt P11802). Kind of test: CDK protein kinase inhibition by ADP-Glo assay, CDK4-CYCLIN D1. In kind it is biochemical. Conditions: for IC50: ADP-Glo, 1000 μM ATP, read-out: CDK4-CYCLIND1, IC50. The method, boiled down: as §1
Sequence of CDK4-CYCLIN D1 (P11802 whole entry): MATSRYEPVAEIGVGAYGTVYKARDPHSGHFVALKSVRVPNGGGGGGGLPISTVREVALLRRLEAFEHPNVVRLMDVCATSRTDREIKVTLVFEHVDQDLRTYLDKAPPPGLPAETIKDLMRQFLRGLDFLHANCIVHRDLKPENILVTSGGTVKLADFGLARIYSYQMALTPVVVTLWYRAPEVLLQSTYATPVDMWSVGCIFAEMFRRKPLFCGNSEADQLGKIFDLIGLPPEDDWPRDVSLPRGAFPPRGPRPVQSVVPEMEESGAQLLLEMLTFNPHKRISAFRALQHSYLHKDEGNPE
Sequence of CDK4-CYCLIN D1 (P24385 whole entry partner): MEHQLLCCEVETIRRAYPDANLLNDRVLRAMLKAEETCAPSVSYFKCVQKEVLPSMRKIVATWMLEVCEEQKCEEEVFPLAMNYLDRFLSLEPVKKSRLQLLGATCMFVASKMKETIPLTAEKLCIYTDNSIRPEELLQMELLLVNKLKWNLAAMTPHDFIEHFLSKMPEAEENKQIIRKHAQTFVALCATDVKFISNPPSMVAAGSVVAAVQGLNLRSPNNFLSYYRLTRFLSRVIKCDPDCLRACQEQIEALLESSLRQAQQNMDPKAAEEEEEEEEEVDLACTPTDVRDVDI
The next test deals with CDK6-CYCLIN D3 (Homo sapiens, UniProt Q00534). In words: CDK protein kinase inhibition by ADP-Glo assay, CDK6-CYCLIN D3. In kind it is biochemical. Conditions: for IC50: ADP-Glo, 1000 μM ATP, read-out: CDK6-CYCLIND3, IC50. An outline of the steps: as §1
Sequence of CDK6-CYCLIN D3 (Q00534 whole entry): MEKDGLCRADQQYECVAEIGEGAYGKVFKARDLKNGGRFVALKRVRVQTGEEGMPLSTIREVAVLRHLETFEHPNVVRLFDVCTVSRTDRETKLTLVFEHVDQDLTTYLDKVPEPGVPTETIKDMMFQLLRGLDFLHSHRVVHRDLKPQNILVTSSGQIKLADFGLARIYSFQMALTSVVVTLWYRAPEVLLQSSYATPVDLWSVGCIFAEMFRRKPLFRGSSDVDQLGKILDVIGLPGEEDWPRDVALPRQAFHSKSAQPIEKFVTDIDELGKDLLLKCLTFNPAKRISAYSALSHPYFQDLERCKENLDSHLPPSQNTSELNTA
Sequence of CDK6-CYCLIN D3 (P30281 whole entry partner): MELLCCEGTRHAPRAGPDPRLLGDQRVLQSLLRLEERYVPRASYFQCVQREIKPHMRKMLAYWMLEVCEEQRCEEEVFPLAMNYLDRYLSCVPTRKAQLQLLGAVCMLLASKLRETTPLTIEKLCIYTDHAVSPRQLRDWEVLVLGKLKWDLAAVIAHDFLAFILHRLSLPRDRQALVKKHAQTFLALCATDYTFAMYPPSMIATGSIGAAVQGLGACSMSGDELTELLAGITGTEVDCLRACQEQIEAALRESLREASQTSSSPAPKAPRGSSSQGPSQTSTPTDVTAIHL
For another test, the target named is CDK9-CYCLIN T1 (Homo sapiens, UniProt P50750). In words: CDK protein kinase inhibition by ADP-Glo assay, CDK9-CYCLIN T1. Conditions: for IC50: ADP-Glo, 1000 μM ATP, read-out: CDK9-CYCLINT1, IC50. In kind it is biochemical. The method, boiled down: as §1
Sequence of CDK9-CYCLIN T1 (P50750 whole entry): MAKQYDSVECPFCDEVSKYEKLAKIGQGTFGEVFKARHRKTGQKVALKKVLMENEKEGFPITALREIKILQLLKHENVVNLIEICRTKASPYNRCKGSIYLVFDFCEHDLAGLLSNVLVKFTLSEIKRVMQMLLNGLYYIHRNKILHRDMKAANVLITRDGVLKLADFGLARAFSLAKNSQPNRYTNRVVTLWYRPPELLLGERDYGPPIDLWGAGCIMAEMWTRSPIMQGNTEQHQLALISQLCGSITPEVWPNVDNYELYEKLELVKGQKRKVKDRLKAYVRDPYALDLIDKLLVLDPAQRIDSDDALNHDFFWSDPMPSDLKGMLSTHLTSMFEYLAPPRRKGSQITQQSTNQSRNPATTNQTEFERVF
Sequence of CDK9-CYCLIN T1 (O60563 whole entry partner): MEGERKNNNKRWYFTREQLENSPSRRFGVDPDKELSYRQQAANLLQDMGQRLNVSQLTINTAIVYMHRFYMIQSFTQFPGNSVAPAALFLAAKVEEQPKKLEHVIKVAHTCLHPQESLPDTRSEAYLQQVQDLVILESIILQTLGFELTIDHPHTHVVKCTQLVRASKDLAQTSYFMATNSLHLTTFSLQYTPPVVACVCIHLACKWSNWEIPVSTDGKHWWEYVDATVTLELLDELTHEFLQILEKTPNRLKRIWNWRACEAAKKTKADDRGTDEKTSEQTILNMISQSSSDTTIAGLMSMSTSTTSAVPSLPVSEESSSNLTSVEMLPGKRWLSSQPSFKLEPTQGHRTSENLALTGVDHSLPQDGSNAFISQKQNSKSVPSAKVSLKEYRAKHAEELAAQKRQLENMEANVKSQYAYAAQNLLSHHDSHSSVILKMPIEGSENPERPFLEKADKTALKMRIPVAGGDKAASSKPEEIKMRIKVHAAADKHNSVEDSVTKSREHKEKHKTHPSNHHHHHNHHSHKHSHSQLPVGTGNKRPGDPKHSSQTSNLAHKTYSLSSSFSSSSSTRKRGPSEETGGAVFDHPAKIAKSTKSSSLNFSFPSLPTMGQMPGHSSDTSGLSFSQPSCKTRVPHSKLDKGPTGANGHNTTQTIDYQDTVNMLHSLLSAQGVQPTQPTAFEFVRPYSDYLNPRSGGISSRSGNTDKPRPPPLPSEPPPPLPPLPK
Test [1] concerns Phospho-Rb (Ser807/811) in OVCAR3 cells. In words: Phospho-Rb expression inhibition in OVCAR3 cells quantified by In Cell Western. In kind it is cell-based. Conditions: Homo sapiens, OVCAR-3, 24 hours, read-out: OVCAR-3 pRb IC50. The method, boiled down: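 In-cell western: after 24 h compound exposure at 37° C, fixed OVCAR3 cells co-stained for pRb Ser807/811 (800 nm channel) and total Rb (680 nm channel), imaged by LI-COR Odyssey.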

The test system of test [2] is CCNE1-amplified OVCAR3 cells. In words: Cell growth inhibition of CCNE1-amplified OVCAR3 cells (CellTiter-Glo). In kind it is cell-based. Conditions: Homo sapiens, OVCAR-3, 144 h, 6 days. An outline of the steps:
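Growth read-out was CellTiter-Glo luminescence, taken after 10 min at room temperature at the end of a 6-day compound exposure at 37 °C. Compounds were diluted from DMSO stocks across various concentrations.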

The test system of another test is CCNE1-normal SKOV3 cells. In words: Cell growth inhibition of CCNE1-normal SKOV3 cells (CellTiter-Glo). In kind it is cell-based. Conditions: Homo sapiens, SK-OV-3, 144 h, 6 days. The method, boiled down:
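Growth was measured by CellTiter-Glo luminescence after 6 days' compound exposure at 37 °C. Cells were plated one day before dosing at 1000 per well in medium with 10% FBS, and compounds were diluted from DMSO stocks.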
(In general: ATP-based viability assays read luminescence as a measure of living cells.)

Where two headings read alike, the source gives them in different places.

Sequence of CDK1-CYCLIN B (P06493 whole entry): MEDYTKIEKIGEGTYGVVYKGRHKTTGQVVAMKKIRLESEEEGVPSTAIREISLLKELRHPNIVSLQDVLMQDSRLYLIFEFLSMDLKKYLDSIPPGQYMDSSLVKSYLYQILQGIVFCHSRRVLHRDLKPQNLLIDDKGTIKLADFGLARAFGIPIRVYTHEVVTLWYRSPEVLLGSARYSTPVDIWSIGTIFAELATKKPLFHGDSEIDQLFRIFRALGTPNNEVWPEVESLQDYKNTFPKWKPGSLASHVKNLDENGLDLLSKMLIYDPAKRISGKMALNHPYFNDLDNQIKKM
Sequence of CDK1-CYCLIN B (P14635 whole entry partner): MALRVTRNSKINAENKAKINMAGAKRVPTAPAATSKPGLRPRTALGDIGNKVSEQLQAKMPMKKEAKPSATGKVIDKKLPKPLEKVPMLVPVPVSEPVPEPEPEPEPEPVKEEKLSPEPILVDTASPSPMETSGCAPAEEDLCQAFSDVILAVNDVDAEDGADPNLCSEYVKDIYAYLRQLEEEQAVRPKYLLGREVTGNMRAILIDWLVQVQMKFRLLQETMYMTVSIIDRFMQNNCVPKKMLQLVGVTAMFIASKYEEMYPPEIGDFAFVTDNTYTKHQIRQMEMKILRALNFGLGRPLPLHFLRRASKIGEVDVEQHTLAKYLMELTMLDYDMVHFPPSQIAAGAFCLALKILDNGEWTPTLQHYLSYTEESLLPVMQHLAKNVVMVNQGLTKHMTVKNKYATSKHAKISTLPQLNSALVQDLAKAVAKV

With `C[C@H]1CCCCc2cc(ccn2)Nc2cc(n[nH]2)[C@H]2CC[C@H](C2)OC(=O)N1` [Compound 114, (1^1S,1^3R,9S,Z)-9-methyl-2^1H-12-oxa-3,10-diaza-4(4,2)-pyridina-2(3,5)-pyrazola-1(1,3)-cyclopentanacyclododecaphan-11-one], the IC50 (usually the point on the concentration scale where inhibition reaches its midpoint) at CDK1-CYCLIN B (Table 19) was 100 to 500 nM; on CDK2-CYCLIN E1 (Table 19) it was at most 10 nM; on CDK4-CYCLIN D1 (Table 19) it was 50 to 100 nM; on CDK6-CYCLIN D3 (Table 19) it was 100 to 500 nM; on CDK9-CYCLIN T1 (Table 19), 100 to 500 nM; in test [1], 10 to 50 nM. For the same molecule, the IC50 in test [2] was 10 to 50 nM; in the test with CCNE1-normal SKOV3 cells it was 250 to 1250 nM. Moreover, the “CDK2 Fold selectivity, CDK1” value at CDK1-CYCLIN B (CDK2 versus CDK1, Table 20) is “E (E, <20)”. The “CDK2 Fold selectivity, CDK4” value at CDK4-CYCLIN D1 (CDK2 versus CDK4, Table 20) is “E (E, <20)”. In addition, at CDK6-CYCLIN D3 (CDK2 versus CDK6, Table 20), the “CDK2 Fold selectivity, CDK6” value is reported as “E (E, <20)”. Also, the “CDK2 Fold selectivity, CDK9” value at CDK9-CYCLIN T1 (CDK2 versus CDK9, Table 20) is “D (D, >20 and ≤50)”.

As to `C[C@@H]1Oc2cncc(c2)Nc2cc(n[nH]2)[C@H]2CC[C@H](C2)OC(=O)N[C@H]2C[C@@H]1C2` [Compound 149, (1^1S,1^3R,7^1S,7^3R,6S,Z)-6-methyl-2^1H-5,10-dioxa-3,8-diaza-4(3,5)-pyridina-2(3,5)-pyrazola-1(1,3)-cyclopentana-7(1,3)-cyclobutanacyclodecaphan-9-one], the IC50 on CDK1-CYCLIN B (Table 23) is 100 to 500 nM; at CDK2-CYCLIN E1 (Table 23), 10 to 50 nM; on CDK4-CYCLIN D1 (Table 23), 100 to 500 nM; on CDK6-CYCLIN D3 (Table 23), above 500 nM; at CDK9-CYCLIN T1 (Table 23), above 500 nM; in test [1] it was 10 to 50 nM. Also, the IC50 is 10 to 50 nM in test [2] and above 1250 nM in the test with CCNE1-normal SKOV3 cells. For the same molecule, the “CDK2 Fold selectivity, CDK1” value on CDK1-CYCLIN B (CDK2 versus CDK1, Table 24) is recorded as “E (E, <20)”. Besides, the “CDK2 Fold selectivity, CDK4” value at CDK4-CYCLIN D1 (CDK2 versus CDK4, Table 24) is given as “E (E, <20)”. Also, the “CDK2 Fold selectivity, CDK6” value at CDK6-CYCLIN D3 (CDK2 versus CDK6, Table 24) is “D (D, >20 and ≤50)”. The “CDK2 Fold selectivity, CDK9” value on CDK9-CYCLIN T1 (CDK2 versus CDK9, Table 24) was “C (C, >50 and ≤100)”.

With `O=C1NC23CC(CCc4cc(ccn4)Nc4cc([nH]n4)[C@H]4CC[C@H](C4)O1)(C2)C3` [compound 21], the IC50 at CDK1-CYCLIN B (Table 9) was above 500 nM; on CDK2-CYCLIN E1 (Table 9), 10 to 50 nM; on CDK4-CYCLIN D1 (Table 9), 100 to 500 nM; on CDK6-CYCLIN D3 (Table 9), 100 to 500 nM; at CDK9-CYCLIN T1 (Table 9), 100 to 500 nM; in test [1], 2 to 10 nM. In addition, the IC50 in test [2] was in the range of 2 to 10 nM; with CCNE1-normal SKOV3 cells it was 250 to 1250 nM.

On to `O=C1NC23CC(C/C=C/c4cncc(c4)Nc4cc(n[nH]4)[C@H]4CC[C@H](C4)O1)(C2)C3` [Compound 106, (1^1S,1^3R,2^4Z,5E)-2^1H-11-oxa-3,9-diaza-4(3,5)-pyridina-2(3,5)-pyrazola-8(1,3)-bicyclo[1.1.1]pentana-1(1,3)-cyclopentanacycloundecaphan-5-en-10-one], for which the 50% inhibitory concentration (IC50) on CDK1-CYCLIN B (Table 15) was at most 10 nM; on CDK2-CYCLIN E1 (Table 15) it was at most 10 nM; on CDK4-CYCLIN D1 (Table 15), 10 to 50 nM; at CDK6-CYCLIN D3 (Table 15), 10 to 50 nM; on CDK9-CYCLIN T1 (Table 15), at most 10 nM; in test [1] it was at most 2 nM. The IC50 is at most 2 nM in test [2] and 10 to 50 nM in the test with CCNE1-normal SKOV3 cells. Also, the “CDK2 Fold selectivity, CDK1” value on CDK1-CYCLIN B (CDK2 versus CDK1, Table 16) is recorded as “E (E, <20)”. The “CDK2 Fold selectivity, CDK4” value at CDK4-CYCLIN D1 (CDK2 versus CDK4, Table 16) is “E (E, <20)”. For the same molecule, the “CDK2 Fold selectivity, CDK6” value at CDK6-CYCLIN D3 (CDK2 versus CDK6, Table 16) is “E (E, <20)”. For the same molecule, at CDK9-CYCLIN T1 (CDK2 versus CDK9, Table 16), the “CDK2 Fold selectivity, CDK9” value was “E (E, <20)”.

On to `O=C1NCCCCCc2cc(ccn2)Nc2cc([nH]n2)[C@H]2CC[C@H](C2)O1` [Compound 4, (1^1S,1^3R,Z)-2^1H-12-oxa-3,10-diaza-4(4,2)-pyridina-2(3,5)-pyrazola-1(1,3)-cyclopentanacyclododecaphan-11-one], for which the IC50 is 100 to 500 nM at CDK1-CYCLIN B (Table 7); at most 10 nM on CDK2-CYCLIN E1 (Table 7); 50 to 100 nM at CDK4-CYCLIN D1 (Table 7); 50 to 100 nM on CDK6-CYCLIN D3 (Table 7); 100 to 500 nM at CDK9-CYCLIN T1 (Table 7); 10 to 50 nM in test [1]. Moreover, the IC50 in test [2] lay in the range of 50 to 250 nM; with CCNE1-normal SKOV3 cells, 250 to 1250 nM. In addition, the “CDK2 fold selectivity over CDK1” value at CDK1-CYCLIN B (CDK2 versus CDK1, Table 8) is “D (D, >20 and ≤50)”. Also, the “CDK2 Fold Sensitivity, CDK4” value at CDK4-CYCLIN D1 (CDK2 versus CDK4, Table 8) is “E (E, <20)”. For the same molecule, the “CDK2 Fold Sensitivity, CDK6” value at CDK6-CYCLIN D3 (CDK2 versus CDK6, Table 8) is recorded as “E (E, <20)”. Moreover, the “CDK2 Fold Sensitivity, CDK9” value at CDK9-CYCLIN T1 (CDK2 versus CDK9, Table 8) was “D (D, >20 and ≤50)”.

For `O=C1NC23CC(C/C=C/c4cc(ccn4)Nc4cc(n[nH]4)[C@H]4CC[C@H](C4)O1)(C2)C3` [Compound 107, (11S,13R,24Z,5E)-21H-11-oxa-3,9-diaza-4(4,2)-pyridina-2(3,5)-pyrazola-8(1,3)-bicyclo[1.1.1]pentana-1(1,3)-cyclopentanacycloundecaphan-5-en-10-one], the IC50 is at most 10 nM on CDK1-CYCLIN B (Table 17); at most 10 nM at CDK2-CYCLIN E1 (Table 17); 10 to 50 nM at CDK4-CYCLIN D1 (Table 17); 10 to 50 nM on CDK6-CYCLIN D3 (Table 17); at most 10 nM at CDK9-CYCLIN T1 (Table 17); at most 2 nM in test [1]. Besides, the IC50 in test [2] was at most 2 nM; in the test with CCNE1-normal SKOV3 cells it was 10 to 50 nM. For the same molecule, the “CDK2 Fold selectivity, CDK1” value at CDK1-CYCLIN B (CDK2 versus CDK1, Table 18) is “E (E, <20)”. The “CDK2 Fold selectivity, CDK4” value at CDK4-CYCLIN D1 (CDK2 versus CDK4, Table 18) is “E (E, <20)”. Also, on CDK6-CYCLIN D3 (CDK2 versus CDK6, Table 18), the “CDK2 Fold selectivity, CDK6” value was “E (E, <20)”. In addition, at CDK9-CYCLIN T1 (CDK2 versus CDK9, Table 18), the “CDK2 Fold selectivity, CDK9” value is listed as “E (E, <20)”.

Turning to `C[C@@H]1Oc2cc(ccn2)Nc2cc(n[nH]2)[C@H]2CC[C@H](C2)OC(=O)N[C@H]2C[C@H]1C2` [compound 146], the IC50 on CDK1-CYCLIN B (Table 21) is 100 to 500 nM; on CDK2-CYCLIN E1 (Table 21), at most 10 nM; at CDK4-CYCLIN D1 (Table 21), above 500 nM; on CDK6-CYCLIN D3 (Table 21) it was 100 to 500 nM; on CDK9-CYCLIN T1 (Table 21), above 500 nM; in test [1] it was 10 to 50 nM. In addition, the IC50 is 10 to 50 nM in test [2] and 250 to 1250 nM with CCNE1-normal SKOV3 cells.

Take `C[C@@H]1CCC2(CC2)NC(=O)O[C@@H]2CC[C@@H](C2)c2cc([nH]n2)Nc2ccnc(c2)O1` [compound 109]: the IC50 was 10 to 50 nM on CDK1-CYCLIN B (Table 9); at most 10 nM on CDK2-CYCLIN E1 (Table 9); 50 to 100 nM on CDK4-CYCLIN D1 (Table 9); 100 to 500 nM at CDK6-CYCLIN D3 (Table 9); 100 to 500 nM at CDK9-CYCLIN T1 (Table 9); 2 to 10 nM in test [1]. The IC50 in test [2] is 10 to 50 nM; in the test on CCNE1-normal SKOV3 cells, 250 to 1250 nM.
